Publication PMC6461236, “The three dimensional structure of Bovine Salivary Protein 30b (BSP30b) and its interaction with specific rumen bacteria” (PLoS ONE, 2019)

Target: T1, BSP30b (Bovine Salivary Protein 30b) (Bos taurus, UniProt P79125)
T1 construct: gene SPLUNC2B; E. coli BL21, pProEx Htb (BamHI/XhoI), HiTrap Ni, MONO Q and SEC purified; synthetic F61M/F115M double mutant; model covers about residues 40-235
T1 sequence (P79125 20-240): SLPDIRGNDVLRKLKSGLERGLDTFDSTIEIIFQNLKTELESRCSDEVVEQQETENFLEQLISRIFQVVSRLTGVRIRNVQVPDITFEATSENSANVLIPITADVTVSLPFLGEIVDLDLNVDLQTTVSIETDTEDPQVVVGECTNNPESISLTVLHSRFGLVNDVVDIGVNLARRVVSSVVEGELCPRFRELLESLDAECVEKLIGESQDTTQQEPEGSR
Experiment: X-ray co-crystal structure, […] Å
Format: binding
Settings: co-crystallised at pH 7.5 after SEC removal of unbound ligand; in hydrophobic channel, about 80% occupancy in dominant site, weaker in second molecule of ASU; contacts ASP112 and ILE113

Structure (SMILES): CCCCCCCC/C=C\CCCCCCCC(=O)O [oleic acid]
- X-ray co-crystal structure, 2.30 Å: The only structure that revealed elongated stretches of electron density within the hydrophobic tunnel
